Patent publication US8063071B2 (GlaxoSmithKline, LLC, priority 2007, dated 2011)
Where a name gives a salt, the structure may show the parent alone.

Target: T1, Recombinant human IKKβ (residues 1-737) (Homo sapiens, UniProt O14920)
T1 construct: Recombinant human IKKβ (residues 1-737); GST (C); made in house
T1 sequence (O14920 1-737): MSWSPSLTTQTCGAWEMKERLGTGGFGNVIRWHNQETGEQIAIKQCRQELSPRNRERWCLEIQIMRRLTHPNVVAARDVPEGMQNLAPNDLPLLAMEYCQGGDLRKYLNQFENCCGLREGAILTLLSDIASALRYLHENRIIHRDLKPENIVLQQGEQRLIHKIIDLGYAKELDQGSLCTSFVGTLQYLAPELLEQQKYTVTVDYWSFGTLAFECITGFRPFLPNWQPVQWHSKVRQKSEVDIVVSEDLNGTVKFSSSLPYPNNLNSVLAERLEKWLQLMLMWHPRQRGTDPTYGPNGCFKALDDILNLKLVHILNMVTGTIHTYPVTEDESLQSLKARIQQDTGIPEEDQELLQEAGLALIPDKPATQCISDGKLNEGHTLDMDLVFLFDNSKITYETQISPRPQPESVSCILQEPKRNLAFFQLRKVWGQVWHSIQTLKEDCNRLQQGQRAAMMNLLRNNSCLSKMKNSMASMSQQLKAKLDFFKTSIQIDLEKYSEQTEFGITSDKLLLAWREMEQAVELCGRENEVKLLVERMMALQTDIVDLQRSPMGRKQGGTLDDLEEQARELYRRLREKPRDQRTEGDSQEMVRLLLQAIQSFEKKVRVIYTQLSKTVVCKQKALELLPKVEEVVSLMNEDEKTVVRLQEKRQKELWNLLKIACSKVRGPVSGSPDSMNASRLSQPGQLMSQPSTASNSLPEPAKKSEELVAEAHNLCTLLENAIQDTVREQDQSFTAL
Experiment: IKK2 assay (TR-FRET)
Type: biochemical
Settings: ATP 1 μM final, read-out: pIC50 against IKK2 (converted)
Experimental: Recombinant human IKKβ (residues 1-737) was expressed in baculovirus as a C-terminal GST-tagged fusion protein, and its activity was assessed using a time-resolved fluorescence resonance energy transfer (TR-FRET) assay. Briefly, IKK2 (0.5 nM-5 nM final) diluted in assay buffer (50 mM HEPES, 10 mM MgCl2, 1 mM CHAPS pH 7.4 with 1 mM DTT and 0.01% w/v BSA) was added to wells containing various concentrations of compound or DMSO vehicle (1.7% final). The reaction was initiated by the addition of GST-IB substrate (25 nM final)/ATP (1 μM final), in a total volume of 6 μl. The reaction was incubated for 15 minutes at room temperature, then terminated by the addition of 3 μl of detection reagent in buffer containing 50 mM EDTA (100 mM HEPES pH 7.4, 150 mM NaCl, 50 mM EDTA and 0.01% w/v BSA) containing antiphosphoserine-IB-32/36 monoclonal antibody 12C2 (Cell Signalling Technology, Beverly Mass., USA) labelled with W-1024 europium chelate (Wallac OY, Turku, Finland), and an APC-labelled anti-GST antibody (Prozyme, San Leandro, Calif., USA) was added and the reaction was further incubated for 60 minutes at room temperature. The degree of phosphorylation of GST-IB was measured using a BMG Rubystar plate reader (BMG Labtech, Aylesbury, UK) as a ratio of specific 665 nm energy transfer signal to reference europium 620 nm signal.

| SMILES | IC50 [µM] |
| --- | --- |
| CCS(=O)(=O)N1CCC(c2c[nH]c3c(C(N)=O)cc(-c4cc(CNC(C)C)c(OC)c(OC)c4)cc23)CC1 [Example 53, 3-[1-(ethylsulfonyl)-4-piperidinyl]-5-[3-{[(1-methylethyl)amino]methyl}-4,5-bis(methyloxy)phenyl]-1H-indole-7-carboxamide] | ≤ 10 |
| CCS(=O)(=O)N1CCC(c2c[nH]c3c(C(N)=O)cc(-c4cc(F)cc(CN5CCOCC5)c4)cc23)CC1 [Example 290, 3-[1-(ethylsulfonyl)-4-piperidinyl]-5-[3-fluoro-5-(4-morpholinylmethyl)phenyl]-1H-indole-7-carboxamide trifluoroacetate] | ≤ 10 |
| CCS(=O)(=O)N1CCC(c2c[nH]c3c(C(N)=O)cc(-c4ccc(OC)c(CNC)c4)cc23)CC1 [Example 266, 3-[1-(ethylsulfonyl)-4-piperidinyl]-5-[3-[(methylamino)methyl]-4-(methyloxy)phenyl]-1H-indole-7-carboxamide trifluoroacetate] | ≤ 10 |
| CCS(=O)(=O)N1CCC(c2c[nH]c3c(C(N)=O)cc(-c4ccc(NS(=O)(=O)C5CCCC5)cc4)cc23)CC1 [Example 387, 5-{4-[(cyclopentylsulfonyl)amino]phenyl}-3-[1-(ethylsulfonyl)-4-piperidinyl]-1H-indole-7-carboxamide trifluoroacetate] | ≤ 10 |
| CCS(=O)(=O)N1CCC(c2c[nH]c3c(C(N)=O)cc(-c4ccc(OC)c(CNCC(C)(C)C)c4)cc23)CC1 [Example 267, 5-[3-{[(2,2-dimethylpropyl)amino]methyl}-4-(methyloxy)phenyl]-3-[1-(ethylsulfonyl)-4-piperidinyl]-1H-indole-7-carboxamide trifluoroacetate] | ≤ 10 |
| CCS(=O)(=O)N1CCC(c2c[nH]c3c(C(N)=O)cc(-c4csc(CN5CCCC(C(F)(F)F)C5)c4)cc23)CC1 (stereo not shown) [Example 407, 3-[1-(ethylsulfonyl)-4-piperidinyl]-5-(5-{[3-(trifluoromethyl)-1-piperidinyl]methyl}-3-thienyl)-1H-indole-7-carboxamide trifluoroacetate] | ≤ 10 |
| CCC(C)N1Cc2ccc(-c3cc(C(N)=O)c4[nH]cc(C5CCN(S(=O)(=O)CC)CC5)c4c3)cc2C1 (stereo not shown) [Example 422, 3-[1-(ethylsulfonyl)-4-piperidinyl]-5-[2-(1-methylpropyl)-2,3-dihydro-1H-isoindol-5-yl]-1H-indole-7-carboxamide] | ≤ 10 |
| CCS(=O)(=O)N1CCC(c2c[nH]c3c(C(N)=O)cc(-c4csc(CN5CCCC5COC)c4)cc23)CC1 (stereo not shown) [Example 405, 3-[1-(ethylsulfonyl)-4-piperidinyl]-5-[5-({2-[(methyloxy)methyl]-1-pyrrolidinyl}methyl)-3-thienyl]-1H-indole-7-carboxamide trifluoroacetate] | ≤ 10 |
| CCS(=O)(=O)N1CCC(c2c[nH]c3c(C(N)=O)cc(-c4ccc(N5CCOCC5)nc4)cc23)CC1 [Example 229, 3-[1-(ethylsulfonyl)-4-piperidinyl]-5-[6-(4-morpholinyl)-3-pyridinyl]-1H-indole-7-carboxamide] | ≤ 10 |
| CCS(=O)(=O)N1CCC(c2c[nH]c3c(C(N)=O)cc(-c4ccc(NC(C)C)nc4)cc23)CC1 [Example 228, 3-[1-(ethylsulfonyl)-4-piperidinyl]-5-{6-[(1-methylethyl)amino]-3-pyridinyl}-1H-indole-7-carboxamide trifluoroacetate] | ≤ 10 |
| CCS(=O)(=O)N1CCC(c2c[nH]c3c(C(N)=O)cc(-c4ccc(CN[C@@H](C)CO)cc4)cc23)CC1 [Example 150, 3-[1-(ethylsulfonyl)-4-piperidinyl]-5-[4-({[(1S)-2-hydroxy-1-methylethyl]amino}methyl)phenyl]-1H-indole-7-carboxamide trifluoroacetate] | ≤ 10 |
| CCS(=O)(=O)N1CCC(c2c[nH]c3c(C(N)=O)cc(-c4cc(F)cc(CN5CCCC5)c4)cc23)CC1 [Example 289, 3-[1-(ethylsulfonyl)-4-piperidinyl]-5-[3-fluoro-5-(1-pyrrolidinylmethyl)phenyl]-1H-indole-7-carboxamide trifluoroacetate] | ≤ 10 |
| CCS(=O)(=O)N1CCC(c2c[nH]c3c(C(N)=O)cc(-c4cc(CN5CCCC5)c(OC)c(OC)c4)cc23)CC1 [Example 57, 5-[3,4-bis(methyloxy)-5-(1-pyrrolidinylmethyl)phenyl]-3-[1-(ethylsulfonyl)-4-piperidinyl]-1H-indole-7-carboxamide] | ≤ 10 |
| CCS(=O)(=O)N1CCC(c2c[nH]c3c(C(N)=O)cc(-c4ccc5c(c4)CN(C4CCCC4)C5)cc23)CC1 [Example 424, 5-(2-cyclopentyl-2,3-dihydro-1H-isoindol-5-yl)-3-[1-(ethylsulfonyl)-4-piperidinyl]-1H-indole-7-carboxamide] | ≤ 10 |
| CCS(=O)(=O)N1CCC(c2c[nH]c3c(C(N)=O)cc(-c4ccc5c(c4)CN(CC(C)(C)C)C5)cc23)CC1 [Example 426, 5-[2-(2,2-dimethylpropyl)-2,3-dihydro-1H-isoindol-5-yl]-3-[1-(ethylsulfonyl)-4-piperidinyl]-1H-indole-7-carboxamide] | ≤ 10 |
| CCCNCc1cc(F)cc(-c2cc(C(N)=O)c3[nH]cc(C4CCN(S(=O)(=O)CC)CC4)c3c2)c1 [Example 284, 3-[1-(ethylsulfonyl)-4-piperidinyl]-5-{3-fluoro-5-[(propylamino)methyl]phenyl}-1H-indole-7-carboxamide trifluoroacetate] | ≤ 10 |
| CCS(=O)(=O)N1CCC(c2c[nH]c3c(C(N)=O)cc(-c4cccc(CNOC)c4)cc23)CC1 [Example 391, 3-[1-(ethylsulfonyl)-4-piperidinyl]-5-(3-{[(methyloxy)amino]methyl}phenyl)-1H-indole-7-carboxamide] | ≤ 10 |

Tested on: human monocyte stimulated cytokine production (TNF-α)
Experiment: Monocyte assay (LPS-stimulated TNF-α production)
Type: cell-based
Settings: 24 h, 200 ng/mL LPS, TNF-α by ELISA
Experimental: Effect of IKK-β inhibition on human monocyte stimulated cytokine production was assessed as follows: Monocytes were isolated from heparinized whole blood by Ficoll gradient, followed by purification of CD14+ cells using MACS magnetic cell separation beads. Isolated monocytes were then adhered to 96-well culture plates at 1×10^6 cells/mL in RPMI 1640 10% FBS (JRH Biosciences, Lenexa Kans.) for 2 h. Test compounds are added to the wells 30 minutes prior to stimulation with a final vehicle concentration of 0.1% DMSO. Monocytes were activated by the addition of 200 ng/mL endotoxin (LPS; E. coli serotype 026:B6)(Sigma, St. Louis, Mo.) and incubated for 24 hrs at 37 C. Cell-free supernates were analyzed by ELISA for TNF-α using Pharmingen matched pair Abs. Viability of the cells was determined by 10% trypan blue exclusion.

| SMILES | IC50 [µM] |
| --- | --- |
| CCOCCN(C)Cc1cc(-c2cc(C(N)=O)c3[nH]cc(C4CCN(S(=O)(=O)CC)CC4)c3c2)cs1 [Example 403, 5-(5-{[[2-(ethyloxy)ethyl](methyl)amino]methyl}-3-thienyl)-3-[1-(ethylsulfonyl)-4-piperidinyl]-1H-indole-7-carboxamide] | ≤ 1.5 |
| CCS(=O)(=O)N1CCC(c2c[nH]c3c(C(N)=O)cc(-c4csc(CNCC(C)(C)C)c4)cc23)CC1 [Example 117, 5-(5-{[(2,2-dimethylpropyl)amino]methyl}-3-thienyl)-3-[1-(ethylsulfonyl)-4-piperidinyl]-1H-indole-7-carboxamide trifluoroacetate] | ≤ 1.5 |

Same assay, conditions: read-out: inhibition at 300 nM in the monocyte assay

| SMILES | inhibition at 0.3 µM [%] |
| --- | --- |
| CCS(=O)(=O)N1CCC(c2c[nH]c3c(C(N)=O)cc(-c4cncc(CNCC5CC5)c4)cc23)CC1 [Example 173, 5-(5-{[(cyclopropylmethyl)amino]methyl}-3-pyridinyl)-3-[1-(ethylsulfonyl)-4-piperidinyl]-1H-indole-7-carboxamide] | 0 to 60 |
| CCS(=O)(=O)N1CCC(c2c[nH]c3c(C(N)=O)cc(-c4cc(CNC(C)C)c5c(c4)OCC5)cc23)CC1 [Example 59, 3-[1-(ethylsulfonyl)-4-piperidinyl]-5-(4-{[(1-methylethyl)amino]methyl}-2,3-dihydro-1-benzofuran-6-yl)-1H-indole-7-carboxamide] | 0 to 60 |
| CCCOCCCNCc1ccc(-c2cc(C(N)=O)c3[nH]cc(C4CCN(S(=O)(=O)CC)CC4)c3c2)s1 [Example 198, 3-[1-(ethylsulfonyl)-4-piperidinyl]-5-[5-({[3-(propyloxy)propyl]amino}methyl)-2-thienyl]-1H-indole-7-carboxamide] | 0 to 60 |
